Results published in patent US20260109712A1, “RIFAMYCINS FOR NONTUBERCULOUS MYCOBACTERIA” (priority 2022, published 2026).
≈ marks a conversion by molar mass, not a printed value. Where two headings read alike, the source gives them in different places.

Assays:
Δarr M. abscessus = assay: MIC assay, isogenic arr-deleted strain; assay type: cell-based, Mycobacterium abscessus; conditions: arr-deleted strain; 90% growth inhibition
Procedure: (§1) MIC determination was carried out in 96-well plate format as previously described.^[13-14] 96-well plates were initially set up with 100 μL of 7H9 per well. For each compound, a ten-point two-fold dilution series starting at twice the desired highest concentration was dispensed onto the 96-well plates using a Tecan D300e Digital Dispenser, with the DMSO concentration normalized to 2%. M. abscessus culture grown to mid-log phase (OD600=0.4-0.6) was diluted to OD600=0.1 (1×10^7 CFU/mL). […] Untreated control wells are included on each plate that contain bacteria suspension and 1% DMSO. Plates were sealed with parafilm, stored in boxes with wet paper towels and incubated at 37° C. with shaking (110 RPM). Plates were incubated for 3 days. To determine growth, OD600 was measured using a Tecan Infinite M200 plate reader on Day 0 and Day 3. Two biological replicates were performed. Clarithromycin was included in each experiment as a positive control.
(§2) For each well on the 96-well plate, bacterial growth was calculated by subtracting the Day 0 OD600 value from the Day 3 OD600 value. […] For compound-containing wells, percentage growth was calculated by dividing their growth values by the average drug-free bacterial growth for the compound series and multiplying by 100. For each compound series, we plotted percentage growth versus compound concentration.

M. abscessus ATCC 19977 = assay: MIC assay in 96-well plate format, wild-type strain; assay type: cell-based, Mycobacterium abscessus; conditions: for MIC ratio: WT MIC/Δarr strain MIC
Procedure: as §1, §2

[1] = Plasma protein binding assay (rapid equilibrium dialysis); assay type: in vitro ADME; conditions: 4 h, 10000 ng/mL
Procedure: DMSO stocks were spiked into plasma to a concentration of 10,000 ng/mL. 200 μL of spiked plasma was pipetted into the sample chamber of the rapid equilibrium dialysis (RED) cartridge. 350 μL of PBS was added to the adjacent cartridge. The plate containing the RED was sealed and incubated at 37° C. on the thermomixer at 300 RPM for 4 h. After incubation, 50 μL aliquots of plasma were removed and added to 50 μL of blank plasma in a deep well plate (1:1). Similarly, 50 μL aliquots of PBS were removed and added to 50 μL of blank plasma. This created an identical matrix between buffer and non-buffer samples. Samples were processed and quantified as specified in the LC-MS/MS analytical method.

[2] = M. abscessus ATCC 19977, 90% growth inhibition, read-out: WT Mab MIC
[3] = Mycobacterium abscessus ATCC 19977, Table 11, read-out: MIC
[4] = Mycobacteroides abscessus, ATCC19977, Table 15, heterocyclic aromatic carbamates, read-out: WT Mab MIC

Row | SMILES | Δarr Mab MIC (Δarr M. abscessus) [µM] | MIC (M. abscessus ATCC 19977; [2]) [µM] | MIC ratio (M. abscessus ATCC 19977) | MIC (M. abscessus ATCC 19977; [3]) [µM] | also measured
1 | CCC(C)C(=O)OC1C(C)C(OC)C=COC2(C)Oc3c(C)c(O)c4c(c3C2=O)C2=NC3(CCN(CC(C)C)CC3)NC2=C(NC(=O)C(C)=CC=CC(C)C(O)C(C)C(O)C1C)C4=O (mixture of isomers) [5k] | 0.028 | 1.1 | 39.3 |  | 
2 | CO[C@H]1/C=C/O[C@@]2(C)Oc3c(C)c(O)c4c(c3C2=O)C2=NC3(CCN(CC(C)C)CC3)NC2=C(NC(=O)/C(C)=C/C=C/[C@H](C)[C@H](O)[C@@H](C)[C@@H](O)[C@@H](C)[C@H](OC(=O)c2cccc(C)c2)[C@@H]1C)C4=O [5c, 25-O-(3-methylbenzoyl)-25-O-desacetyrifabutin] | 0.065 | 0.075 (≈ 0.0692 µg/mL) | 1.2 |  | 
3 | CO[C@H]1/C=C/O[C@@]2(C)Oc3c(C)c(O)c4c(c3C2=O)C2=NC3(CCN(CC(C)C)CC3)NC2=C(NC(=O)/C(C)=C/C=C/[C@H](C)[C@H](O)[C@@H](C)[C@@H](O)[C@@H](C)[C@H](OC(=O)c2ccc(C)cc2)[C@@H]1C)C4=O [5d, 25-O-(4-methylbenzoyl)-25-O-desacetyrifabutin] | 0.11 | 0.2 (≈ 0.185 µg/mL) | 1.8 |  | 
4 | CO[C@H]1/C=C/O[C@@]2(C)Oc3c(C)c(O)c4c(c3C2=O)C2=NC3(CCN(CC(C)C)CC3)NC2=C(NC(=O)/C(C)=C/C=C/[C@H](C)[C@H](O)[C@@H](C)[C@@H](O)[C@@H](C)[C@H](OC(=O)c2ccccc2F)[C@@H]1C)C4=O [5e, 25-O-(2-fluorobenzoyl)-25-O-desacetyrifabutin] | 0.058 | 0.06 (≈ 0.0556 µg/mL) | 1.0 |  | 
5 | CO[C@H]1/C=C/O[C@@]2(C)Oc3c(C)c(O)c4c(c3C2=O)C2=NC3(CCN(CC(C)C)CC3)NC2=C(NC(=O)/C(C)=C/C=C/[C@H](C)[C@H](O)[C@@H](C)[C@@H](O)[C@@H](C)[C@H](OC(=O)N2CCN(C)C(C)C2)[C@@H]1C)C4=O (stereo partly shown) [UMN52] |  |  |  | 0.097 (≈ 0.0917 µg/mL) | 
6 | CO[C@H]1/C=C/O[C@@]2(C)Oc3c(C)c(O)c4c(c3C2=O)C2=NC3(CCN(CC(C)C)CC3)NC2=C(NC(=O)/C(C)=C/C=C/[C@H](C)[C@H](O)[C@@H](C)[C@@H](O)[C@@H](C)[C@H](OC(=O)c2cc(Cl)c(Cl)cc2C(=O)O)[C@@H]1C)C4=O [UMN99, 25-O-(6-carboxyl-3,4-dichlorobenzoyl)-25-O-desacetyrifabutin] |  |  |  | 0.1 (≈ 0.102 µg/mL) | 
7 | CO[C@H]1/C=C/O[C@@]2(C)Oc3c(C)c(O)c4c(c3C2=O)C2=NC3(CCN(CC(C)C)CC3)NC2=C(NC(=O)/C(C)=C/C=C/[C@H](C)[C@H](O)[C@@H](C)[C@@H](O)[C@@H](C)[C@H](OC(=O)NCc2cn(-c3cccc(Br)c3)nn2)[C@@H]1C)C4=O [UMN104] |  |  |  | 0.032 (≈ 0.0347 µg/mL) | 
8 | CO[C@H]1/C=C/O[C@@]2(C)Oc3c(C)c(O)c4c(c3C2=O)C2=NC3(CCN(CC(C)C)CC3)NC2=C(NC(=O)/C(C)=C/C=C/[C@H](C)[C@H](O)[C@@H](C)[C@@H](O)[C@@H](C)[C@H](OC(=O)Nc2ccccc2F)[C@@H]1C)C4=O [UMN106] |  |  |  | 0.034 (≈ 0.032 µg/mL) | 
9 | CO[C@H]1/C=C/O[C@@]2(C)Oc3c(C)c(O)c4c(c3C2=O)C2=NC3(CCN(CC(C)C)CC3)NC2=C(NC(=O)/C(C)=C/C=C/[C@H](C)[C@H](O)[C@@H](C)[C@@H](O)[C@@H](C)[C@H](OC(=O)Nc2cccc(F)c2)[C@@H]1C)C4=O [UMN107] |  |  |  | 0.1 (≈ 0.0942 µg/mL) | 
10 | CO[C@H]1/C=C/O[C@@]2(C)Oc3c(C)c(O)c4c(c3C2=O)C2=NC3(CCN(CC(C)C)CC3)NC2=C(NC(=O)/C(C)=C/C=C/[C@H](C)[C@H](O)[C@@H](C)[C@@H](O)[C@@H](C)[C@H](OC(=O)Nc2ccc(F)cc2)[C@@H]1C)C4=O [UMN108] |  |  |  | 0.062 (≈ 0.0584 µg/mL) | 
11 | CO[C@H]1/C=C/O[C@@]2(C)Oc3c(C)c(O)c4c(c3C2=O)C2=NC3(CCN(CC(C)C)CC3)NC2=C(NC(=O)/C(C)=C/C=C/[C@H](C)[C@H](O)[C@@H](C)[C@@H](O)[C@@H](C)[C@H](OC(=O)Nc2ccccn2)[C@@H]1C)C4=O [UMN117] |  |  |  |  | ƒu [1]: 0.9%; MIC (M. abscessus ATCC 19977; [4]): 0.025 µM (≈ 0.0231 µg/mL)
12 | CO[C@H]1/C=C/O[C@@]2(C)Oc3c(C)c(O)c4c(c3C2=O)C2=NC3(CCN(CC(C)C)CC3)NC2=C(NC(=O)/C(C)=C/C=C/[C@H](C)[C@H](O)[C@@H](C)[C@@H](O)[C@@H](C)[C@H](OC(=O)Nc2ccnnc2)[C@@H]1C)C4=O [UMN119] |  |  |  |  | ƒu [1]: 6.1%; MIC (M. abscessus ATCC 19977; [4]): 0.05 µM (≈ 0.0463 µg/mL)
